The text below walks through data of US20210220368A1, “COMPOSITIONS COMPRISING TIMOLOL AND THEIR USE IN THE TREATMENT OF ROSACEA BY TOPICAL ADMINISTRATION” (Almirall, S.A., priority 2016, published 2021).

Assay [1] relates to capsaicin-induced vasodilation. The assay is described as follows: Vasodilation (erythema) induced by topical capsaicin in the ear of CD1 mice. It counts as in vivo, CD-1 mice. The following applies: timolol 1%, brimonidine 0.33%, oxymetazoline 0.88% solutions, topical to the ear before capsaicin; peak erythema 45 min after capsaicin, Mexameter. The procedure: Evaluation of the Effect of Topical Timolol, Brimonidine and Oxymetazoline in Vasodilation Induced by Topical Application of Capsaicin in the Ear of CD1 Mice
Neurogenic skin inflammation was induced by capsaicin (Alacapsin 0.075% cream) on the ear of CD-1 mice. Capsaicin induces the release of neuropeptides most of which have vasodilatory properties. In this model vasodilation is evaluated with a narrowband spectrophotometer probe (Mexameter) that measures peak absorption of haemoglobin. The quantity of light absorbed by the skin is calculated as Mexameter® arbitrary units, and this measure of erythema can be considered a surrogate of vasodilation. […] Treatment effects are reported at this maximal induction of erythema.
Timolol 1%, brimonidine 0.33% and oxymetazoline 0.88% solutions were applied topically to the mouse ear before capsaicin induction.
Results described represent peak erythema of four groups of animals and are reported as mexameter arbitrary units. Each group included 6-12 animals. Numbers above the bars indicate the percentage inhibition of the corresponding group vs the capsaicin control group.

Assay [2] concerns TPA-induced ear oedema. The assay is described as follows: TPA-induced ear oedema model in Balb/c mice. It counts as in vivo. Conditions: timolol 1%, brimonidine 0.2% in acetone, topical, 30 min before and 15 min after TPA; ear weight at T+6 h; p<0.005. The procedure:
Evaluation of the Anti-Oedema Effect of Timolol and Brimonidine after Two Topical Applications in the TPA-Induced Ear Oedema Model in Balb/c Mice.
The oedema is induced by means of a single application to the right ear of the mouse of 20 μl of a solution of TPA (phorbol 12-myristate 13-acetate) in acetone at 0.01%. The test compounds are diluted in acetone and applied 30 minutes before and 15 minutes after TPA. The weight of the mouse ears is measured at T+6 h and the weight of the left ear is subtracted from the one of the right ear.
Timolol was applied at a concentration of 1% before and after TPA application. The alpha agonist, brimonidine 0.2% was also tested for comparison.
Each group included 12 animals. Numbers above the bars indicate the percentage inhibition of the corresponding group of treated animals vs the control group.

Assay [3] has as its system TPA-induced ear oedema. Conditions: topical brimonidine 0.2%, mice; Piwnica et al., J. Dermatol. Sci. 2014; cited from earlier work.
Assay [4] concerns erythematotelangiectatic rosacea. The following applies: topical timolol, human subjects with erythematotelangiectatic rosacea; Jaque et al., Rev. Chilena Dermatol 2012; cited from earlier work.

The structures appear in SMILES notation.

In the case of `Cc1cc(C(C)(C)C)c(O)c(C)c1CC1=NCCN1` [oxymetazoline], in assay [1], the “percentage inhibition of ear vasodilation (erythema) vs capsaicin control group” value (“percentage inhibition” below) turned out to be 60%.

`Brc1c(NC2=NCCN2)ccc2nccnc12` [brimonidine]: the “inhibition of ear oedema vs control group” value in the assay on TPA-induced ear oedema [2] is given as “around 50%”. Besides, the “percentage inhibition” value in assay [1] is given as 56%. The “inhibition of TPA-induced ear oedema” value in the assay with TPA-induced ear oedema [3] was 50%.

In the case of `CC(C)(C)NC[C@H](O)COc1nsnc1N1CCOCC1` [timolol, (S)-1-(tert-butylamino)-3-[(4-morpholin-4-yl-1,2,5-thiadiazol-3-yl)oxy]propan-2-ol], the “inhibition of ear oedema vs control group” value in the assay on TPA-induced ear oedema [2] is given as “around 50%”. The “percentage inhibition” value in assay [1] is 44%. Moreover, the clinical benefit result in assay [4] is on record as “no clinical benefit”.
